# Reference: patent publication US20250282749A1 (Tango Therapeutics, Inc., priority 2022, published 2025)
# How the values were obtained:
# Assay type in all cases: cell-based
# [1] = system: PRMT5 (SDMA) in HAP1 MTAP-intact cell line; test: SDMA in-cell western assay, HAP1 MTAP-intact cell line; settings: Homo sapiens, HAP1 MTAP-intact cell line (endogenous MTAP), read-out: Hap 1 MTAP intact IC50
# Text: (§1) HAP1 MTAP-intact is a cell line in which endogenous levels of MTAP are expressed, and HAP1 MTAP-deleted is an MTAP-null cell line.
# [2] = system: PRMT5 (SDMA) in HAP1 MTAP-deleted cell line; test: SDMA in-cell western assay, HAP1 MTAP-deleted cell line; settings: for IC50 / IC90: Homo sapiens, SDMA in-cell western, HAP1 MTAP-deleted (MTAP-null) cell line; for Hap1 MTAP intact/deleted ratio: ratio of SDMA in-cell western IC50 in HAP1 MTAP-intact to IC50 in HAP1 MTAP-deleted cell line
# Text: as §1
# [3] = system: HAP1 MTAP-deleted cell line; test: viability assay for the MTAP-deleted cell line; settings: Homo sapiens
SMILES,IC50 [1] [nM],IC50 [2] [nM],IC90 [2] [nM],Hap1 MTAP intact/deleted ratio [2],IC50 [3] [nM]
"Cc1cc(NC(=O)C(=O)N2C[C@@H](C)N(C(=O)C(C)C)C[C@@H]2c2ccc(N3CCN(C)CC3)cc2)cnc1N [Compound 11, N-(6-amino-5-methylpyridin-3-yl)-2-((2S,5R)-4-isobutyryl-5-methyl-2-(4-(4-methylpiperazin-1-yl)phenyl)piperazin-1-yl)-2-oxoacetamide]",5 to 50,< 5,< 75,C (an IC50 ratio of less than 15 fold),< 100
Cc1cc(NC(=O)C(=O)N2C[C@@H](C)N(C(=O)OC(C)(C)C)C[C@@H]2c2ccc(F)cc2)cnc1N [Compound 101],> 50,< 5,< 75,B (an IC50 ratio greater than or equal to 15 fold but lower than 30 fold),< 100
Cc1cc(NC(=O)C(=O)N2C[C@@H](C)N(C(=O)OC(C)(C)C)C[C@@H]2c2ccc(F)c(F)c2)cnc1N [Compound 21],> 50,5 to 50,75 to 125,C (an IC50 ratio of less than 15 fold),100 to 1000
CCc1cc(NC(=O)C(=O)N2CCN(C(=O)C3(C(F)(F)F)CC3)[C@@H](C)[C@@H]2c2ccc(F)cc2)cnc1N [Compound 1],> 50,5 to 50,75 to 125,A (an IC50 ratio greater than or equal to 30 fold),< 100
Cc1cc(NC(=O)C(=O)N2CCN(C(=O)C3(C(F)(F)F)CC3)[C@H](C)[C@H]2c2ccc(F)c(F)c2)cnc1N [Compound 66],> 50,5 to 50,> 125,A (an IC50 ratio greater than or equal to 30 fold),100 to 1000
"C[C@@H]1CN(C(=O)C(=O)Nc2cnc(N)c(C3COC3)c2)[C@@H](c2ccc(F)cc2)CN1C(=O)OC(C)(C)C [Compound 2, (2R,5S)-tert-butyl 4-(2-((6-amino-5-(oxetan-3-yl)pyridin-3-yl)amino)-2-oxoacetyl)-5-(4-fluorophenyl)-2-methylpiperazine-1-carboxylate]",> 50,< 5,< 75,C (an IC50 ratio of less than 15 fold),< 100
Cc1cc(NC(=O)C(=O)N2C[C@@H](C)N(C(=O)OC(C)(C)C)C[C@@H]2c2ccccc2)cnc1N [Compound 25],5 to 50,< 5,< 75,C (an IC50 ratio of less than 15 fold),< 100
"C[C@@H]1CN(C(=O)C(=O)Nc2cncc3cn[nH]c23)[C@@H](c2ccc(F)cc2)CN1C(=O)OC(C)(C)C [Compound 129, (2R,5S)-tert-butyl 4-(2-((1H-pyrazolo[4,3-c]pyridin-7-yl)amino)-2-oxoacetyl)-5-(4-fluorophenyl)-2-methylpiperazine-1-carboxylate]",> 50,5 to 50,> 125,A (an IC50 ratio greater than or equal to 30 fold),100 to 1000
"Cc1cc(NC(=O)C(=O)N2C[C@@H](C)N(C(=O)C3(C(F)(F)F)CC3)C[C@@H]2c2ccc(F)c(Cl)c2)cnc1N [Compound 29, N-(6-amino-5-methylpyridin-3-yl)-2-((2S,5R)-2-(3-chloro-4-fluorophenyl)-5-methyl-4-(1-(trifluoromethyl)cyclopropanecarbonyl)piperazin-1-yl)-2-oxoacetamide]",> 50,< 5,< 75,B (an IC50 ratio greater than or equal to 15 fold but lower than 30 fold),< 100

# The next lines start with results.
IC50 [1] [nM],IC50 [2] [nM],IC90 [2] [nM],SMILES,Hap1 MTAP intact/deleted ratio [2],IC50 [3] [nM]
> 50,> 50,> 125,"Cc1cc(NC(=O)C(=O)N2C[C@H](C)N(C(=O)C(C)C)C[C@H]2c2ccc3scnc3c2)cnc1N (single isomer, unassigned) [Compound 45]",C (an IC50 ratio of less than 15 fold),> 1000
> 50,< 5,< 75,"CC(C)OC(=O)N1C[C@@H](c2ccc(F)cc2)N(C(=O)C(=O)Nc2cnc(N)c(C3CC3)c2)C[C@@H]1C (stereo in doubt) [Compound 151, isopropyl 4-(2-((6-amino-5-cyclopropylpyridin-3-yl)amino)-2-oxoacetyl)-5-(4-fluorophenyl)-2-methylpiperazine-1-carboxylate]",B (an IC50 ratio greater than or equal to 15 fold but lower than 30 fold),< 100
> 50,5 to 50,75 to 125,"CC(C)C(=O)N1C[C@H](c2ccccc2)N(C(=O)C(=O)Nc2cnc(N)c(C3CC3)c2)C[C@H]1C [Compound 98, N-(6-amino-5-cyclopropylpyridin-3-yl)-2-((2S,5R)-4-isobutyryl-5-methyl-2-phenylpiperazin-1-yl)-2-oxoacetamide]",C (an IC50 ratio of less than 15 fold),< 100
> 50,< 5,< 75,"CCc1cc(NC(=O)C(=O)N2C[C@@H](C)N(C(=O)C(C)C)C[C@@H]2c2ccc(N3CCN(C)CC3)cc2)cnc1N [Compound 89, N-(6-amino-5-ethylpyridin-3-yl)-2-((2S,5R)-4-isobutyryl-5-methyl-2-(4-(4-methylpiperazin-1-yl)phenyl)piperazin-1-yl)-2-oxoacetamide]",A (an IC50 ratio greater than or equal to 30 fold),< 100
5 to 50,< 5,< 75,"CCc1cc(NC(=O)C(=O)N2C[C@@H](C)N(C(=O)C(C)(C)C)C[C@@H]2c2ccc(F)cc2)cnc1N [Compound 33, N-(6-amino-5-ethylpyridin-3-yl)-2-((2S,5R)-2-(4-fluorophenyl)-5-methyl-4-pivaloylpiperazin-1-yl)-2-oxoacetamide]",C (an IC50 ratio of less than 15 fold),< 100
> 50,5 to 50,75 to 125,"CCc1cc(NC(=O)C(=O)N2C[C@@H](C)N(CC(C)(C)C)C[C@@H]2c2ccccc2)cnc1N [Compound 121, N-(6-amino-5-ethylpyridin-3-yl)-2-((2S,5R)-5-methyl-4neopentyl-2-phenylpiperazin-1-yl)-2-oxoacetamide]",B (an IC50 ratio greater than or equal to 15 fold but lower than 30 fold),< 100
> 50,5 to 50,> 125,"CC(C)CN1C[C@H](c2ccccc2)N(C(=O)C(=O)Nc2cnc(N)c(C3CC3)c2)C[C@H]1C [Compound 122, N-(6-amino-5-cyclopropylpyridin-3-yl)-2-((2S,5R)-4-isobutyl-5-methyl-2-phenylpiperazin-1-yl)-2-oxoacetamide]",B (an IC50 ratio greater than or equal to 15 fold but lower than 30 fold),< 100
> 50,< 5,> 125,"Cc1cc(NC(=O)C(=O)N2C[C@@H](C)N(C(=O)C3(C)CC3)C[C@@H]2c2ccsc2)cnc1N [Compound 31, N-(6-amino-5-methyl-3-pyridyl)-2-[(2S,5R)-5-methyl-4-(1-methylcyclopropanecarbonyl)-2-(3-thienyl)piperazin-1-yl]-2-oxo-acetamide]",B (an IC50 ratio greater than or equal to 15 fold but lower than 30 fold),< 100
> 50,< 5,< 75,"CC(C)C(=O)N1C[C@H](c2ccc(F)c(Cl)c2)N(C(=O)C(=O)Nc2cnc(N)c(C3CC3)c2)C[C@H]1C [Compound 24, N-(6-amino-5-cyclopropylpyridin-3-yl)-2-((2S,5R)-2-(3-chloro-4-fluorophenyl)-4-isobutyryl-5-methylpiperazin-1-yl)-2-oxoacetamide]",B (an IC50 ratio greater than or equal to 15 fold but lower than 30 fold),< 100
> 50,5 to 50,> 125,"Cc1cc(NC(=O)C(=O)N2CCN(C(=O)C3(C(F)(F)F)CC3)[C@H](C)[C@H]2c2ccc(F)cc2)cnc1N (stereo in doubt) [Compound 118, N-(6-amino-5-methyl-3-pyridyl)-2-[2-(4-fluorophenyl)-3-methyl-4-[1-(trifluoromethyl)cyclopropanecarbonyl]piperazin-1-yl]-2-oxo-acetamide]",B (an IC50 ratio greater than or equal to 15 fold but lower than 30 fold),100 to 1000
> 50,< 5,< 75,"C[C@@H]1CN(C(=O)C(=O)Nc2cnc(N)c(C3CC3)c2)[C@@H](c2ccc(F)c(Cl)c2)CN1C(=O)C1(C(F)(F)F)CC1 [Compound 14, N-(6-amino-5-cyclopropylpyridin-3-yl)-2-((2S,5R)-2-(3-chloro-4-fluorophenyl)-5-methyl-4-(1-(trifluoromethyl)cyclopropanecarbonyl)piperazin-1-yl)-2-oxoacetamide]",C (an IC50 ratio of less than 15 fold),< 100
> 50,< 5,75 to 125,"C[C@@H]1CN(C(=O)C(=O)Nc2cnc(N)c(C3CC3)c2)[C@@H](c2ccccc2)CN1C(=O)C1(C)CC1 [Compound 94, N-(6-amino-5-cyclopropylpyridin-3-yl)-2-((2S,5R)-5-methyl-4-(1-methylcyclopropanecarbonyl)-2-phenylpiperazin-1-yl)-2-oxoacetamide]",B (an IC50 ratio greater than or equal to 15 fold but lower than 30 fold),< 100
